Test results taken from publication PMC5218480 (PLoS ONE, 2017).

System: MV-4-11 cells
Assay: Gene expression microarray analysis (Affymetrix PrimeView) and GSEA
Assay type: cell-based, human
Set-up: RFU PODN (11730768_x_at) / Fold change /veh PODN (11730768_x_at) / RFU LINC00158 (11744669_a_at) / Fold change /veh LINC00158 (11744669_a_at) / RFU DUSP10 (11751237_a_at) / Fold change /veh DUSP10 (11751237_a_at) / RFU ID3 (11757404_x_at) / Fold change /veh ID3 (11757404_x_at) / RFU PLEKHG5 (11737974_s_at) / Fold change /veh PLEKHG5 (11737974_s_at) / RFU LRRC4B (11730491_at) / Fold change /veh LRRC4B (11730491_at) / RFU GIMAP4 (11747438_a_at) / Fold change /veh GIMAP4 (11747438_a_at) / RFU KRT8 (11758183_x_at) / Fold change /veh KRT8 (11758183_x_at) / RFU CNN1 (11734310_a_at) / Fold change /veh CNN1 (11734310_a_at) / RFU VPS37D (11726825_at) / Fold change /veh VPS37D (11726825_at) / RFU C10orf10 (11716522_x_at) / Fold change /veh C10orf10 (11716522_x_at) / RFU KIR2DL2 /// KIR2DL4 /// KIR2DL5A /// KIR2DL5B /// KIR2DS1 /// KIR2DS2 /// KIR2DS3 /// KIR2DS4 /// KIR3DL3 /// KIR3DL3 /// KIR3DS1 (11738374_at) / Fold change /veh KIR2DL2 /// KIR2DL4 /// KIR2DL5A /// KIR2DL5B /// KIR2DS1 /// KIR2DS2 /// KIR2DS3 /// KIR2DS4 /// KIR3DL3 /// KIR3DL3 /// KIR3DS1 (11738374_at) / RFU C1QL1 (11718748_at) / Fold change /veh C1QL1 (11718748_at) / RFU TMPRSS4 (11747572_a_at) / Fold change /veh TMPRSS4 (11747572_a_at) / RFU HAMP (11756126_x_at) / Fold change /veh HAMP (11756126_x_at) / RFU RNFT2 (11725882_a_at) / Fold change /veh RNFT2 (11725882_a_at) / RFU NR4A2 (11747474_a_at) / Fold change /veh NR4A2 (11747474_a_at) / RFU ABCC12 (11746883_a_at) / Fold change /veh ABCC12 (11746883_a_at) / RFU TMEM136 (11760407_x_at) / Fold change /veh TMEM136 (11760407_x_at) / RFU CLDN22 /// WWC2 (11732394_at) / Fold change /veh CLDN22 /// WWC2 (11732394_at) / RFU HLA-DPB1 (11760878_x_at) / Fold change /veh HLA-DPB1 (11760878_x_at) / RFU SPINT1 (11716480_a_at) / Fold change /veh SPINT1 (11716480_a_at) / RFU GAP43 (11754022_s_at) / Fold change /veh GAP43 (11754022_s_at) / RFU A4GNT (11735810_at) / Fold change /veh A4GNT (11735810_at) / RFU PRB3 (11715151_x_at) / Fold change /veh PRB3 (11715151_x_at) / RFU TUBB4B (11761932_at) / Fold change /veh TUBB4B (11761932_at) / RFU CAPN14 (11732068_a_at) / Fold change /veh CAPN14 (11732068_a_at) / RFU TMCC2 (11721928_a_at) / Fold change /veh TMCC2 (11721928_a_at) / RFU IRGQ (11745062_a_at) / Fold change /veh IRGQ (11745062_a_at) / RFU FAM174B (11720279_a_at) / Fold change /veh FAM174B (11720279_a_at) / RFU TMPRSS4 (11748680_a_at) / Fold change /veh TMPRSS4 (11748680_a_at) / RFU FAM212B (11763350_a_at) / Fold change /veh FAM212B (11763350_a_at) / RFU PLEKHG5 (11743358_a_at) / Fold change /veh PLEKHG5 (11743358_a_at) / RFU ZSCAN30 (11745921_a_at) / Fold change /veh ZSCAN30 (11745921_a_at) / RFU CMKLR1 (11741424_a_at) / Fold change /veh CMKLR1 (11741424_a_at) / RFU LOC101060620 /// MAPK8IP1 (11723275_at) / Fold change /veh LOC101060620 /// MAPK8IP1 (11723275_at) / RFU SPTSSB (11747773_x_at) / Fold change /veh SPTSSB (11747773_x_at) / RFU PRSS12 (11739890_at) / Fold change /veh PRSS12 (11739890_at) / RFU BIN1 (11741810_x_at) / Fold change /veh BIN1 (11741810_x_at) / RFU WNT11 (11732464_a_at) / Fold change /veh WNT11 (11732464_a_at) / RFU C10orf10 (11716521_a_at) / Fold change /veh C10orf10 (11716521_a_at) / RFU C5orf56 (11738089_at) / Fold change /veh C5orf56 (11738089_at) / RFU CYB561 (11721691_x_at) / Fold change /veh CYB561 (11721691_x_at) / RFU ANKRD19P (11752326_a_at) / Fold change /veh ANKRD19P (11752326_a_at) / RFU OR2T12 /// OR2T33 /// OR2T8 (11738714_s_at) / Fold change /veh OR2T12 /// OR2T33 /// OR2T8 (11738714_s_at) / RFU VCAN (11748164_a_at) / Fold change /veh VCAN (11748164_a_at) / RFU JSRP1 (11732532_at) / Fold change /veh JSRP1 (11732532_at) / RFU KRTAP10-11 (11738290_x_at) / Fold change /veh KRTAP10-11 (11738290_x_at) / RFU MYO3A (11730013_a_at) / Fold change /veh MYO3A (11730013_a_at) / RFU EBF3 (11725865_a_at) / Fold change /veh EBF3 (11725865_a_at) / RFU CAMK2N1 (11719241_x_at) / Fold change /veh CAMK2N1 (11719241_x_at) / RFU C5orf56 (11738088_a_at) / Fold change /veh C5orf56 (11738088_a_at) / RFU OLFML3 (11715873_a_at) / Fold change /veh OLFML3 (11715873_a_at) / RFU LOC100653217 /// NTM (11731650_a_at) / Fold change /veh LOC100653217 /// NTM (11731650_a_at) / RFU MAPK11 (11762145_a_at) / Fold change /veh MAPK11 (11762145_a_at) / RFU FIZ1 (11724087_x_at) / Fold change /veh FIZ1 (11724087_x_at) / RFU OASL (11726364_x_at) / Fold change /veh OASL (11726364_x_at) / RFU SOX15 (11748057_x_at) / Fold change /veh SOX15 (11748057_x_at) / RFU CD79A (11719716_a_at) / Fold change /veh CD79A (11719716_a_at) / RFU HIST1H1D (11736915_at) / Fold change /veh HIST1H1D (11736915_at) / RFU CASKIN2 (11723855_a_at) / Fold change /veh CASKIN2 (11723855_a_at) / RFU LOC730098 (11760151_x_at) / Fold change /veh LOC730098 (11760151_x_at) / RFU OR4N2 (11742367_at) / Fold change /veh OR4N2 (11742367_at) / RFU PRRT2 (11749266_a_at) / Fold change /veh PRRT2 (11749266_a_at) / RFU SNX32 (11753110_a_at) / Fold change /veh SNX32 (11753110_a_at) / RFU CDHR5 (11726645_a_at) / Fold change /veh CDHR5 (11726645_a_at) / RFU RCAN1 (11760418_a_at) / Fold change /veh RCAN1 (11760418_a_at) / RFU FAM167A (11723789_a_at) / Fold change /veh FAM167A (11723789_a_at) / RFU FAM26E (11764081_at) / Fold change /veh FAM26E (11764081_at) / RFU ISYNA1 (11749810_s_at) / Fold change /veh ISYNA1 (11749810_s_at) / RFU ACY1 (11761880_at) / Fold change /veh ACY1 (11761880_at) / RFU 11764098_at / Fold change /veh 11764098_at / RFU SAMD14 (11745864_x_at) / Fold change /veh SAMD14 (11745864_x_at) / RFU NPB (11741838_a_at) / Fold change /veh NPB (11741838_a_at) / RFU TMPRSS6 (11731388_a_at) / Fold change /veh TMPRSS6 (11731388_a_at) / RFU KRTAP10-2 (11738614_at) / Fold change /veh KRTAP10-2 (11738614_at) / RFU ARHGAP8 /// PRR5-ARHGAP8 (11727945_x_at) / Fold change /veh ARHGAP8 /// PRR5-ARHGAP8 (11727945_x_at) / RFU KRTAP5-7 /// NADSYN1 (11734609_at) / Fold change /veh KRTAP5-7 /// NADSYN1 (11734609_at) / RFU RASL12 (11751679_a_at) / Fold change /veh RASL12 (11751679_a_at) / RFU CDKN2B (11736163_a_at) / Fold change /veh CDKN2B (11736163_a_at) / RFU PRF1 (11729649_at) / Fold change /veh PRF1 (11729649_at) / RFU, ZNF638 /// ZNF638-IT1 / Fold change vs veh, ZNF638 /// ZNF638-IT1 / RFU, PANK3 / Fold change vs veh, PANK3 / RFU, SH3YL1 / Fold change vs veh, SH3YL1 / RFU, ZEB2 / Fold change vs veh, ZEB2 / RFU, NRIP1 / Fold change vs veh, NRIP1 / RFU, PTTG1IP / Fold change vs veh, PTTG1IP / RFU, CAPN2 / Fold change vs veh, CAPN2 / RFU, MED14 / Fold change vs veh, MED14 / RFU, SNORA58 / Fold change vs veh, SNORA58 / RFU, C1orf63 / Fold change vs veh, C1orf63 / RFU, LRRFIP1 / Fold change vs veh, LRRFIP1 / RFU, NDUFAF7 / Fold change vs veh, NDUFAF7 / RFU, SLC12A2 / Fold change vs veh, SLC12A2 / RFU, IBTK / Fold change vs veh, IBTK / RFU, ESF1 / Fold change vs veh, ESF1 / Fold change vs veh, TMEM50B / RFU, TAOK1 / Fold change vs veh, TAOK1 / RFU, ACBD3 / Fold change vs veh, ACBD3 / RFU, TMA16 / Fold change vs veh, TMA16 / RFU, RWDD3 / Fold change vs veh, RWDD3 / RFU, BCAT1 / Fold change vs veh, BCAT1 / RFU, EDEM3 / Fold change vs veh, EDEM3 / RFU, TMEM33 / Fold change vs veh, TMEM33 / RFU, WDR75 / Fold change vs veh, WDR75 / RFU, AHCTF1 / Fold change vs veh, AHCTF1 / RFU, TFRC / Fold change vs veh, TFRC / RFU, ZDHHC17 / Fold change vs veh, ZDHHC17 / RFU, NOM1 / Fold change vs veh, NOM1 / RFU, ARL8B / Fold change vs veh, ARL8B / RFU, ZBTB11 / Fold change vs veh, ZBTB11 / RFU, TAMM41 / Fold change vs veh, TAMM41 / RFU, KIAA1704 /// LOC100996395 / Fold change vs veh, KIAA1704 /// LOC100996395 / RFU, ING1 / Fold change vs veh, ING1 / RFU, TRMT61B / Fold change vs veh, TRMT61B / RFU, FUBP3 / Fold change vs veh, FUBP3 / RFU, TP53 / Fold change vs veh, TP53 / RFU, TNKS2 / Fold change vs veh, TNKS2 / RFU, ZFP14 / Fold change vs veh, ZFP14 / RFU, ACTR2 / Fold change vs veh, ACTR2 / RFU, PPP3R1 / Fold change vs veh, PPP3R1 / RFU, PIK3R1 / Fold change vs veh, PIK3R1 / RFU, HNRNPA1 / Fold change vs veh, HNRNPA1 / RFU, RNF170 / Fold change vs veh, RNF170 / RFU, ZNF28 / Fold change vs veh, ZNF28 / RFU, RNGTT / Fold change vs veh, RNGTT / RFU, OGT / Fold change vs veh, OGT / RFU, BRD1 / Fold change vs veh, BRD1 / RFU, MARS / Fold change vs veh, MARS / RFU, ZNF655 / Fold change vs veh, ZNF655 / RFU, FAHD1 / Fold change vs veh, FAHD1 / RFU, BDP1 / Fold change vs veh, BDP1 / RFU, LRRCC1 / Fold change vs veh, LRRCC1 / RFU, ARID1A / Fold change vs veh, ARID1A / RFU, ZNF146 / Fold change vs veh, ZNF146 / RFU, ZNF330 / Fold change vs veh, ZNF330 / RFU, GPN3 / Fold change vs veh, GPN3 / RFU, C9orf123 / Fold change vs veh, C9orf123 / RFU, N4BP2L2 / Fold change vs veh, N4BP2L2 / RFU, ARFIP1 / Fold change vs veh, ARFIP1 / RFU, FAM179B / Fold change vs veh, FAM179B / RFU, BCL10 / Fold change vs veh, BCL10 / RFU, UHRF1BP1L / Fold change vs veh, UHRF1BP1L / RFU, BET1 / Fold change vs veh, BET1 / RFU, CNOT2 / Fold change vs veh, CNOT2 / RFU, ZNF268 / Fold change vs veh, ZNF268 / Fold change vs veh, ZNF507 / RFU, DGCR2 / Fold change vs veh, DGCR2 / RFU, WDSUB1 / Fold change vs veh, WDSUB1 / Fold change vs veh, HSP90B1 /// MIR3652 / RFU, ADSS / Fold change vs veh, ADSS / RFU, GK / Fold change vs veh, GK / RFU, ZNF148 / Fold change vs veh, ZNF148 / RFU, TAF9 / Fold change vs veh, TAF9 / RFU, SLC1A5 / Fold change vs veh, SLC1A5 / RFU, SLMO2 / Fold change vs veh, SLMO2 / RFU, ABCC4 / Fold change vs veh, ABCC4 / RFU, LOC101060439 /// RAP1B / Fold change vs veh, LOC101060439 /// RAP1B / RFU, RFX7 / Fold change vs veh, RFX7 / RFU, GTPBP10 / Fold change vs veh, GTPBP10 / RFU, CNEP1R1 / Fold change vs veh, CNEP1R1 / RFU, BIVM-ERCC5 /// ERCC5 / Fold change vs veh, BIVM-ERCC5 /// ERCC5 / RFU, ILF3 / Fold change vs veh, ILF3 / RFU 11762660_at / Fold change /veh 11762660_at / RFU VCAN (11757783_s_at) / Fold change /veh VCAN (11757783_s_at) / RFU DDX43 (11728927_at) / Fold change /veh DDX43 (11728927_at) / RFU KRT8 (11758188_x_at) / Fold change /veh KRT8 (11758188_x_at) / RFU NKD1 (11759106_at) / Fold change /veh NKD1 (11759106_at) / RFU SRD5A1 (11742802_a_at) / Fold change /veh SRD5A1 (11742802_a_at) / RFU TPSAB1 /// TPSB2 (11721975_s_at) / Fold change /veh TPSAB1 /// TPSB2 (11721975_s_at) / RFU GSTM3 (11746129_a_at) / Fold change /veh GSTM3 (11746129_a_at) / RFU IL23R (11737362_x_at) / Fold change /veh IL23R (11737362_x_at) / RFU TMEM51 (11727254_a_at) / Fold change /veh TMEM51 (11727254_a_at) / RFU PIWIL2 (11732686_x_at) / Fold change /veh PIWIL2 (11732686_x_at) / RFU ORM1 (11744905_x_at) / Fold change /veh ORM1 (11744905_x_at) / RFU CCDC152 (11743942_at) / Fold change /veh CCDC152 (11743942_at) / RFU ECM1 (11717891_a_at) / Fold change /veh ECM1 (11717891_a_at) / RFU IL23R (11748794_a_at) / Fold change /veh IL23R (11748794_a_at) / RFU TNFAIP8L3 (11732012_x_at) / Fold change /veh TNFAIP8L3 (11732012_x_at) / RFU MBOAT4 (11741988_at) / Fold change /veh MBOAT4 (11741988_at) / RFU 11764193_at / Fold change /veh 11764193_at / RFU TMEM53 (11763286_at) / Fold change /veh TMEM53 (11763286_at) / RFU MAGEB2 (11727129_at) / Fold change /veh MAGEB2 (11727129_at) / RFU TMEM200A (11744735_a_at) / Fold change /veh TMEM200A (11744735_a_at) / RFU CCDC152 (11751479_a_at) / Fold change /veh CCDC152 (11751479_a_at) / RFU FAM211A (11726209_a_at) / Fold change /veh FAM211A (11726209_a_at) / RFU RGS16 (11746705_a_at) / Fold change /veh RGS16 (11746705_a_at) / RFU VCAN (11755009_s_at) / Fold change /veh VCAN (11755009_s_at) / RFU RHOB (11743442_s_at) / Fold change /veh RHOB (11743442_s_at) / RFU RGS16 (11720943_a_at) / Fold change /veh RGS16 (11720943_a_at) / RFU RGS16 (11720944_at) / Fold change /veh RGS16 (11720944_at) / RFU, VPS4B / Fold change vs veh, VPS4B / RFU, CREB1 / Fold change vs veh, CREB1 / RFU, DNAJC13 / Fold change vs veh, DNAJC13 / RFU, GNAQ / Fold change vs veh, GNAQ / RFU, CDK5R1 / Fold change vs veh, CDK5R1 / RFU, ZRANB3 / Fold change vs veh, ZRANB3 / RFU, CUL4A / Fold change vs veh, CUL4A / RFU, CCNY / Fold change vs veh, CCNY / RFU, UFL1 / Fold change vs veh, UFL1 / RFU, COG3 / Fold change vs veh, COG3 / RFU, DIAPH2 / Fold change vs veh, DIAPH2 / RFU, SKA2 / Fold change vs veh, SKA2 / RFU, AFF3 / Fold change vs veh, AFF3 / RFU, LMF1 / Fold change vs veh, LMF1 / RFU, IPO11 / Fold change vs veh, IPO11 / RFU, DFFB / Fold change vs veh, DFFB / RFU, FOXP1 / Fold change vs veh, FOXP1 / RFU, CARD8 / Fold change vs veh, CARD8 / RFU, STRN3 / Fold change vs veh, STRN3 / RFU, ADK / Fold change vs veh, ADK / RFU, RASSF2 / Fold change vs veh, RASSF2 / RFU, WIPF1 / Fold change vs veh, WIPF1 / RFU, LARP1B / Fold change vs veh, LARP1B / RFU, RASA1 / Fold change vs veh, RASA1 / RFU, RB1 / Fold change vs veh, RB1 / RFU, PPFIA1 / Fold change vs veh, PPFIA1 / RFU, MAT2A / Fold change vs veh, MAT2A / RFU, CCT5 / Fold change vs veh, CCT5 / RFU, WDR92 / Fold change vs veh, WDR92 / RFU, CUX1 / Fold change vs veh, CUX1 / RFU, TTC7A / Fold change vs veh, TTC7A / RFU, TMEM135 / Fold change vs veh, TMEM135 / RFU, DEPTOR / Fold change vs veh, DEPTOR / RFU, CPM / Fold change vs veh, CPM / RFU, DNAJB6 / Fold change vs veh, DNAJB6 / RFU, CACNA2D3 / Fold change vs veh, CACNA2D3 / RFU, DTX4 / Fold change vs veh, DTX4 / RFU, TFCP2 / Fold change vs veh, TFCP2 / RFU, GMCL1 /// GMCL1P1 / Fold change vs veh, GMCL1 /// GMCL1P1 / RFU, AEBP2 / Fold change vs veh, AEBP2 / RFU, SNHG1 /// SNORD22 /// SNORD25 /// SNORD26 /// SNORD27 /// SNORD28 /// SNORD29 /// SNORD31 / Fold change vs veh, SNHG1 /// SNORD22 /// SNORD25 /// SNORD26 /// SNORD27 /// SNORD28 /// SNORD29 /// SNORD31 / Fold change (Aza/veh), C12orf56 (ProbeSet 11735607_a_at) / Fold change (ACY-1035/veh), C12orf56 (ProbeSet 11735607_a_at) / Fold change (Aza/veh), FGFR1OP (ProbeSet 11751329_s_at) / Fold change (ACY-1035/veh), FGFR1OP (ProbeSet 11751329_s_at) / Fold change (Aza/veh), VPS36 (ProbeSet 11739960_a_at) / Fold change (ACY-1035/veh), VPS36 (ProbeSet 11739960_a_at) / RFU SYPL1 (11715823_x_at) / Fold change /veh SYPL1 (11715823_x_at) / RFU IGFBP7 (11715501_s_at) / Fold change /veh IGFBP7 (11715501_s_at) / RFU REEP3 (11722064_at) / Fold change /veh REEP3 (11722064_at) / RFU IGLL1 (11728026_x_at) / Fold change /veh IGLL1 (11728026_x_at): dose or concentration left out as unconfirmed
Settings: MV-4-11 cells, 48 hours

With `Nc1ccc(-c2cccs2)cc1NC(=O)c1ccc2c(c1)cc(C1CC1)n2CCN1CCOCC1` [ACY-1035] as the compound, how does the “RFU KRTAP10-11 (11738290_x_at)” value read?
Its value is 38.61 RFU.
